Source: patent publication US8648035B2 (priority 2007, dated 2014)
pIC50: −log10 of the molar value.

What was measured:
[1] = test system: E. coli cell-free transcription-translation system; assay type: biochemical; conditions: for pIC50: read-out: IC50 for inhibition of protein synthesis (firefly luciferase)
[2] = test system: E. coli cell-free transcription-translation system; assay type: biochemical; conditions: bacterial system

SYPDLHL [BLS25] was tested, and the “stimulation of protein synthesis (luciferase)” value [1] was 20%.

With AGAAMSH [BLS15] the “combination effect with antibiotic on inhibition of protein synthesis” value ([2]; combination with streptomycin or other related antibiotics) was “synergistic action”, the “increase of potency in inhibiting protein synthesis” value ([2]; in the presence of 3 μM streptomycin) was 25 fold and the “inhibition of synthesis of GFP” value [1] was “shown to inhibit synthesis of GFP”. For the same substance, the pIC50 [1] was 4.82.

Work on AMSAPIP [BLS18] yielded a pIC50 [1] of 3.86.

SILPYPY [BLS26] was tested, and the “stimulation of protein synthesis (luciferase)” value [1] was 20%.
